Experimental data from the supplement of paper PMC11061612.

Legend:
[1] = tested on: KP-3 (Pancreatic Carcinoma); assay: combination Emax (second highest fraction inhibited in the dose matrix, 72 h); higher = more inhibition; extreme values may be limits of the assay
Summary of the method: (§1)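 Cell lines in DMEM/F12 or RPMI with 10% FBS were plated in 1536-well plates, held 24 hours at 37°C, 5% CO2, then given two-drug dose matrices for 72 hours (DMSO typically 0.2%). Viability was read by CellTiter-Glo 2.0 luminescence and scaled as inhibition from 0 (vehicle wells) to 1 (blank wells). Combination Emax is the second-highest inhibition in the matrix; Bliss excess is observed combination effect minus expected EA + EB − EA·EB, EA and EB being single-agent effects.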

[2] = tested on: OCI-AML3 (Acute Myeloid Leukemia); assay: as above
Summary of the method: as §1

[3] = tested on: SJSA-1 (Osteosarcoma); assay: as above
Summary of the method: as §1

[4] = tested on: SK-GT-4 (Esophageal Adenocarcinoma); assay: as above
Summary of the method: as §1

[5] = tested on: NCI-H526 (Small Cell Lung Carcinoma); assay: as above
Summary of the method: as §1

[6] = tested on: NCI-H929 (Plasma Cell Myeloma); assay: as above
Summary of the method: as §1

[7] = tested on: MOG-G-CCM (Low Grade Glioma); assay: as above
Summary of the method: as §1

[8] = tested on: NCI-H3122 (Lung Adenocarcinoma); assay: as above
Summary of the method: as §1

[9] = tested on: T-T (Esophageal Squamous Cell Carcinoma); assay: as above
Summary of the method: as §1

[10] = tested on: M059J (Glioblastoma); assay: as above
Summary of the method: as §1

[11] = tested on: VMRC-RCZ (Kidney Carcinoma); assay: as above
Summary of the method: as §1

[12] = tested on: NCCIT (Other Solid Carcinomas); assay: as above
Summary of the method: as §1

[13] = tested on: ST486 (Burkitt's Lymphoma); assay: as above
Summary of the method: as §1

[14] = tested on: KYSE-270 (Esophageal Squamous Cell Carcinoma); assay: as above
Summary of the method: as §1

[15] = tested on: KU812 (Chronic Myelogenous Leukemia); assay: as above
Summary of the method: as §1

[16] = tested on: NCI-H2731 (Mesothelioma); assay: as above
Summary of the method: as §1

[17] = tested on: COR-L279 (Small Cell Lung Carcinoma); assay: as above
Summary of the method: as §1

[18] = tested on: DMS-114 (Small Cell Lung Carcinoma); assay: as above
Summary of the method: as §1

[19] = tested on: CW-2 (Colorectal Carcinoma); assay: as above
Summary of the method: as §1

[20] = tested on: OCI-AML3 (Acute Myeloid Leukemia); assay: Bliss excess, mean over the matrix (fraction); higher = more synergy
Summary of the method: as §1
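Wherever Bliss excess, mean over the matrix is given: after 72 h of two-drug dosing.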

Row | SMILES | combination Emax [1] | combination Emax [2] | combination Emax [3] | combination Emax [4] | combination Emax [5] | combination Emax [6] | combination Emax [7] | combination Emax [8] | combination Emax [9] | combination Emax [10] | combination Emax [11] | combination Emax [12] | combination Emax [13] | combination Emax [14] | combination Emax [15] | combination Emax [16] | combination Emax [17] | combination Emax [18] | combination Emax [19] | Bliss excess [20]
1 | C[C@@H](Oc1cc(-c2cnn(C3CCNCC3)c2)cnc1N)c1c(Cl)ccc(F)c1Cl [Crizotinib] + Cn1cnc2c(F)c(Nc3ccc(Br)cc3Cl)c(C(=O)NOCCO)cc21 [Selumetinib] (first compound max 10 µM, 7x7, partner max 10 µM) | 0.208 | 0.997 | 0.82 | 0.461 | 0.508 | 1 | 0.374 | 0.916 | 0.759 | 0.257 | 0.174 | 0.4 | 0.936 | 0.441 | 1 | 0.519 | 0.755 | 0.527 | 0.37 | -0.0401
2 | N#Cc1cnc(Nc2cc(NC[C@H]3CNCCO3)c(C(F)(F)F)cn2)cn1 [SRA737] + C=CCn1c(=O)c2cnc(Nc3ccc(N4CCN(C)CC4)cc3)nc2n1-c1cccc(C(C)(C)O)n1 [AZD1775] (first compound max 10 µM, partner max 1 µM) | 0.294 | 0.934 | 0.535 | 0.565 | 0.753 | 0.724 | 0.683 | 0.724 | 0.671 | 0.659 | 0.51 | 0.821 | 0.987 | 0.991 | 0.796 | 0.357 | 0.834 | 0.229 | 0.499 | 0.171
3 | O=C(c1cc(Cc2n[nH]c(=O)c3ccccc23)ccc1F)N1CCN(C(=O)C2CC2)CC1 [Olaparib] + CN(CC[C@H](CSC1=CC=CC=C1)NC2=C(C=C(C=C2)S(=O)(=O)NC(=O)C3=CC=C(C=C3)N4CCC(CC4)[C@H](C5=CC=CC=C5C6=CC=C(C=C6)Cl)O)S(=O)(=O)C(F)(F)F)CCO [AZD4320] (first compound max 10 µM, 7x7, partner max 1 µM) | 0.104 | 0.548 | 0.133 | 0.154 | 0.916 | 0.142 | 0.445 | 0.223 | 0.233 | 0.321 | 0.0911 | 0.198 | 0.754 | 0.383 | 0.862 | 0.0908 | 0.992 | 0.214 | 0.113 | 0.057
4 | C[C@@H]1COCCN1c1cc(C2([S@](C)(=N)=O)CC2)nc(-c2ccnc3[nH]ccc23)n1 [AZD6738] + C1CC(C1)(C(=O)[O-])C(=O)[O-].N.N.[Pt+2] [Carboplatin] (first compound max 10 µM, 7x7, partner max 10 µM) | 0.264 | 0.854 | 0.477 | 0.463 | 0.564 | 0.801 | 0.536 | 0.674 | 0.26 | 0.502 | 0.392 | 0.531 | 0.865 | 0.779 | 0.817 | 0.399 | 0.635 | 0.4 | 0.537 | -0.0326
5 | Cc1c2c(nn1C)CSCc1cc(n(C)n1)CSc1cc(c3ccccc3c1)OCCCc1c(C(=O)O)n(C)c3c-2c(Cl)ccc13 [AZD5991] + CC(=O)O[C@H]1C(=O)[C@@]2(C)[C@H]([C@H](OC(=O)c3ccccc3)[C@]3(O)C[C@H](OC(=O)[C@H](O)[C@@H](NC(=O)c4ccccc4)c4ccccc4)C(C)=C1C3(C)C)[C@]1(OC(C)=O)CO[C@@H]1C[C@@H]2O [Paclitaxel] (first compound max 1 µM, 7x7, partner max 3 µM) | 0.365 | 1 | 0.725 | 0.454 | 1 | 1 | 0.936 | 0.965 | 0.989 | 0.865 | 0.358 | 0.984 | 0.994 | 0.962 | 0.918 | 0.397 | 0.997 | 0.944 | 0.497 | 0.0141
6 | CN(CCO)CC[C@H](CSc1ccccc1)Nc1ccc(S(=O)(=O)NC(=O)c2ccc(N3CCC([C@@H](O)c4ccccc4-c4ccc(Cl)cc4)CC3)cc2)cc1S(=O)(=O)C(F)(F)F [AZD4320] + CS(=O)(=O)CCNCc1ccc(-c2ccc3ncnc(Nc4ccc(OCc5cccc(F)c5)c(Cl)c4)c3c2)o1 [Lapatinib] (first compound max 1 µM, 7x7, partner max 10 µM) | 0.363 | 0.884 | 0.332 | 0.774 | 0.995 | 0.589 | 0.729 | 0.281 | 0.935 | 0.705 | 0.598 | 0.243 | 0.96 | 0.708 | 0.973 | 0.858 | 1 | 0.36 | 0.593 | 0.0258
7 | O=C(c1cc(Cc2n[nH]c(=O)c3ccccc23)ccc1F)N1CCN(C(=O)C2CC2)CC1 [Olaparib] + COc1nnc2ccc(N3CCC(c4ccc(OCCN5CCN(C)C(=O)[C@H]5C)cc4)CC3)nn12 [AZD5153] (first compound max 10 µM, 7x7, partner max 1 µM) | 0.125 | 1 | 0.539 | 0.426 | 0.926 | 0.911 | 0.51 | 0.596 | 0.48 | 0.718 | 0.248 | 0.66 | 0.897 | 0.493 | 0.908 | 0.362 | 0.953 | 0.514 | 0.48 | -0.0369
8 | C[C@@H](Nc1cc(F)cc(F)c1)c1cc(C(=O)N(C)C)cc2c(=O)cc(N3CCOCC3)oc12 [AZD8186] + CC(=O)c1c(C)c2cnc(Nc3ccc(N4CCNCC4)cn3)nc2n(C2CCCC2)c1=O [Palbociclib] (first compound max 10 µM, 7x7, partner max 10 µM) | 0.283 | 0.525 | 0.376 | 0.422 | 0.081 | 0.99 | 0.519 | 0.742 | 0.315 | 0.337 | 0.42 | 0.542 | 0.813 | 0.311 | 0.582 | 0.233 | 0.909 | 0.468 | 0.374 | 0.0401
9 | C[C@@H](Oc1cc(-c2cnn(C3CCNCC3)c2)cnc1N)c1c(Cl)ccc(F)c1Cl [Crizotinib] + CC1=C(C(=CC=C1)Cl)NC(=O)C2=CN=C(S2)NC3=CC(=NC(=N3)C)N4CCN(CC4)CCO [Dasatinib] (first compound max 10 µM, 7x7, partner max 2 µM) | 0.127 | 0.639 | 0.885 | 0.812 | 0.452 | 0.999 | 0.921 | 0.881 | 0.825 | 0.829 | 0.846 | 0.342 | 0.95 | 0.792 | 1 | 0.888 | 0.839 | 0.591 | 0.306 | 0.0207
10 | CN(CCO)CC[C@H](CSc1ccccc1)Nc1ccc(S(=O)(=O)NC(=O)c2ccc(N3CCC([C@@H](O)c4ccccc4-c4ccc(Cl)cc4)CC3)cc2)cc1S(=O)(=O)C(F)(F)F [AZD4320] + CC(=O)O[C@H]1C(=O)[C@@]2(C)[C@H]([C@H](OC(=O)c3ccccc3)[C@]3(O)C[C@H](OC(=O)[C@H](O)[C@@H](NC(=O)c4ccccc4)c4ccccc4)C(C)=C1C3(C)C)[C@]1(OC(C)=O)CO[C@@H]1C[C@@H]2O [Paclitaxel] (first compound max 1 µM, 7x7, partner max 3 µM) | 0.8 | 1 | 0.967 | 0.894 | 1 | 0.926 | 0.996 | 0.999 | 0.92 | 0.974 | 0.693 | 0.989 | 1 | 0.913 | 0.943 | 0.932 | 1 | 0.879 | 0.608 | 0.007
11 | N#Cc1cnc(Nc2cc(NC[C@H]3CNCCO3)c(C(F)(F)F)cn2)cn1 [SRA737] + O=c1[nH]cc(F)c(=O)[nH]1 [5-Fluorouracil] (first compound max 10 µM, 7x7, partner max 20 µM) | 0.307 | 0.922 | 0.403 | 0.407 | 0.855 | 0.768 | 0.419 | 0.611 | 0.384 | 0.315 | 0.354 | 0.458 | 0.928 | 0.99 | 0.606 | 0.172 | 0.821 | 0 | 0.403 | 0.0646
12 | CC1(C)CCC(CN2CCN(c3ccc(C(=O)NS(=O)(=O)c4ccc(NCC5CCOCC5)c([N+](=O)[O-])c4)c(Oc4cnc5[nH]ccc5c4)c3)CC2)=C(c2ccc(Cl)cc2)C1 [Venetoclax] + CS(=O)(=O)CCNCc1ccc(-c2ccc3ncnc(Nc4ccc(OCc5cccc(F)c5)c(Cl)c4)c3c2)o1 [Lapatinib] (first compound max 1 µM, 7x7, partner max 10 µM) | 0.165 | 0.397 | 0.219 | 0.341 | 0.727 | 0.207 | 0.166 | 0.232 | 0.794 | 0.365 | 0.155 | 0.209 | 0.524 | 0.477 | 0.831 | 0.285 | 0.911 | 0.226 | 0.379 | 0.01
